Entries after “also recorded” stand apart in the source; their conditions may differ.
Columns and labels:
Eis_Ava [1] = molecular target: T1, Eis_Ava (Trichormus variabilis (Anabaena variabilis), UniProt Q3M362); assay: UV-Vis assay of Eis_Ava activity against KAN and 6′-glycinyl-KAN; conditions: AG 0.1 mM, AcCoA 0.5 mM, Eis 0.5 μM
Eis_Mtb [2] = molecular target: T2, Eis_Mtb (Mycobacterium tuberculosis, UniProt P9WFK7); assay type: biochemical; conditions: AG 0.1 mM, AcCoA 0.5 mM, Eis 0.5 μM
Eis_Msm [3] = molecular target: T3, Eis_Msm (Mycolicibacterium smegmatis, UniProt A0QY29); assay: UV-Vis assay of Eis_Msm activity against KAN and 6′-glycinyl-KAN; conditions: AG 0.1 mM, AcCoA 0.5 mM, Eis 0.5 μM
Eis_Msm [4] = conditions: cited from earlier work
Eis_Mtb [5] = molecular target: T2, Eis_Mtb; conditions: cited from earlier work
Eis_Ava [6] = molecular target: T1, Eis_Ava; assay: Number of acetylations of AGs by Eis_Ava; assay type: biochemical; conditions: mass spectrometry; AG 0.67 mM, AcCoA 6.7 mM, Eis_Ava 10 μM, overnight at rt
Eis_Ava [7] = molecular target: T1, Eis_Ava; assay: Acyl-CoA cosubstrate profile of Eis_Ava; assay type: biochemical; conditions: 6 acyl-CoA cosubstrates tested
Eis_Mtb [8] = molecular target: T2, Eis_Mtb; conditions: transfer onto a few AGs; cited from earlier work
Eis_Ava [9] = molecular target: T1, Eis_Ava; assay: Regio-specificity of NEA acetylation by Eis_Ava; assay type: biochemical
Eis_Mtb [10] = molecular target: T2, Eis_Mtb; assay type: biochemical; conditions: 500 μM AcCoA, apparent
Eis_Msm [11] = molecular target: T3, Eis_Msm; assay type: biochemical; conditions: read-out: IC50 Eis_Msm; NEO acetylation
Eis_Ava [12] = assay: biochemical; assay type: biochemical
Eis_Ava [13] = molecular target: T1, Eis_Ava; assay: biochemical; assay type: biochemical
[14] = tested on: NC[C@@H]1O[C@H](O[C@H]2[C@@H](O)[C@H](O[C@@H]3[C@@H](O)[C@H](N)C[C@H](N)[C@H]3O[C@H]3O[C@H](CN)[C@@H](O)[C@H](O)[C@H]3N)O[C@@H]2CO)[C@H](N)[C@@H](O)[C@@H]1O; assay: purified protein, by the assay type; assay type: biochemical, Anabaena variabilis; conditions: other: Eis_Ava […], 500 μM AcCoA, apparent, pH 7.5
[15] = tested on: NC[C@H]1O[C@H](O[C@H]2[C@H](O)[C@@H](O)[C@H](N)C[C@@H]2N)[C@H](N)[C@@H](O)[C@@H]1O; assay: purified protein, by the assay type; assay type: biochemical, Anabaena variabilis; conditions: other: Eis_Ava […], 500 μM AcCoA, apparent, pH 7.5
[16] = tested on: CN[C@@H]1[C@@H](O[C@H]2O[C@H](CO)[C@@H](N)[C@H](O)[C@H]2O)OC2C[C@@H](N)[C@@H](O[C@H]3[C@H](O)[C@@H](O)[C@H](N)C[C@@H]3N)OC2[C@@H]1O; assay: purified protein, by the assay type; assay type: biochemical, Anabaena variabilis; conditions: other: Eis_Ava […], 500 μM AcCoA, apparent, pH 7.5
[17] = tested on: NC[C@@H]1O[C@H](O[C@H]2[C@@H](O)[C@H](O[C@@H]3[C@@H](O)[C@H](N)C[C@H](N)[C@H]3O[C@H]3O[C@H](CO)[C@@H](O)[C@H](O)[C@H]3N)O[C@@H]2CO)[C@H](N)[C@@H](O)[C@@H]1O; assay: purified protein, by the assay type; assay type: biochemical, Anabaena variabilis; conditions: other: Eis_Ava […], 500 μM AcCoA, apparent, pH 7.5
[18] = tested on: NC[C@@H]1O[C@H](O[C@H]2[C@@H](O)[C@H](O[C@@H]3[C@@H](O)[C@H](N)C[C@H](N)[C@H]3O[C@H]3O[C@H](CN)[C@@H](O)[C@H](O)[C@H]3N)O[C@@H]2CO)[C@H](N)[C@@H](O)[C@@H]1O; assay: purified protein, by the assay type; assay type: biochemical, Mycobacterium smegmatis; conditions: other: Eis_Msm […], 500 μM AcCoA, apparent, pH 7.5
[19] = tested on: NC[C@H]1O[C@H](O[C@H]2[C@H](O)[C@@H](O)[C@H](N)C[C@@H]2N)[C@H](N)[C@@H](O)[C@@H]1O; assay: purified protein, by the assay type; assay type: biochemical, Mycobacterium smegmatis; conditions: other: Eis_Msm […], 500 μM AcCoA, apparent, pH 7.5
[20] = tested on: CN[C@@H]1[C@@H](O[C@H]2O[C@H](CO)[C@@H](N)[C@H](O)[C@H]2O)OC2C[C@@H](N)[C@@H](O[C@H]3[C@H](O)[C@@H](O)[C@H](N)C[C@@H]3N)OC2[C@@H]1O; assay: purified protein, by the assay type; assay type: biochemical, Mycobacterium smegmatis; conditions: other: Eis_Msm […], 500 μM AcCoA, apparent, pH 7.5
[21] = tested on: NC[C@@H]1O[C@H](O[C@H]2[C@@H](O)[C@H](O[C@@H]3[C@@H](O)[C@H](N)C[C@H](N)[C@H]3O[C@H]3O[C@H](CO)[C@@H](O)[C@H](O)[C@H]3N)O[C@@H]2CO)[C@H](N)[C@@H](O)[C@@H]1O; assay: purified protein, by the assay type; assay type: biochemical, Mycobacterium smegmatis; conditions: other: Eis_Msm […], 500 μM AcCoA, apparent, pH 7.5
[22] = tested on: NC[C@H]1O[C@H](O[C@H]2[C@H](O)[C@@H](O)[C@H](N)C[C@@H]2N)[C@H](N)[C@@H](O)[C@@H]1O; assay: purified protein, by the assay type; assay type: biochemical, Mycobacterium tuberculosis; conditions: other: Eis_Mtb […], 500 μM AcCoA, apparent, pH 7.5

T2 sequence (P9WFK7 whole entry): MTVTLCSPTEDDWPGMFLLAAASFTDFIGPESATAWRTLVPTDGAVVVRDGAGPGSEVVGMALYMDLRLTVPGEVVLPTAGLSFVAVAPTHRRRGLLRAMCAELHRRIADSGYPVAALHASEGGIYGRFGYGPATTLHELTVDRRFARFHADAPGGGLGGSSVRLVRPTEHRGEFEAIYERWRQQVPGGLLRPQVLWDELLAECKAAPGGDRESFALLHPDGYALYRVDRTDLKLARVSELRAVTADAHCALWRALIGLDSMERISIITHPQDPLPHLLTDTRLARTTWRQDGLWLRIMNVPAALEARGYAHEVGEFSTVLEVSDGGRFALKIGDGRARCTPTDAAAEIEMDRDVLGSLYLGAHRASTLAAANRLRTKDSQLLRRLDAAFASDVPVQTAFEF

NCC(=O)NCC1OC(OC2C(N)CC(N)C(OC3OC(CO)C(O)C(N)C3O)C2O)C(O)C(O)C1O (stereo not shown) [6′-glycinyl-KAN]
acetylation by Eis_Ava (UV-Vis) (Eis_Ava [1]): not a substrate; also recorded: almost inactive
acetylation by Eis_Mtb (UV-Vis) (Eis_Mtb [2]): not a substrate; also recorded: almost inactive
acetylation by Eis_Msm (UV-Vis) (Eis_Msm [3]): not a substrate; also recorded: almost inactive

CN[C@@H]1[C@@H](O[C@H]2O[C@H](CO)[C@@H](N)[C@H](O)[C@H]2O)OC2C[C@@H](N)[C@@H](O[C@H]3[C@H](O)[C@@H](O)[C@H](N)C[C@@H]3N)OC2[C@@H]1O (stereo partly shown) [APR, apramycin]
number of acetylations by Eis_Msm (Eis_Msm [4]): Di-acetylation
substrate of Eis_Mtb (Eis_Mtb [5]): not be a substrate
number of acetylations by Eis_Ava (Eis_Ava [6]): mono-acetylated

CC(=O)SCCNC(=O)CCNC(=O)[C@H](O)C(C)(C)COP(=O)(O)OP(=O)(O)OC[C@H]1O[C@@H](n2cnc3c(N)ncnc32)[C@H](O)[C@@H]1OP(=O)(O)O [AcCoA]
acceptance as cosubstrate by Eis_Ava (Eis_Ava [7]): accepted
acceptance as cosubstrate by Eis_Mtb (Eis_Mtb [8]): efficiently accepting

NC[C@H]1O[C@H](O[C@H]2[C@H](O)[C@@H](O)[C@H](N)C[C@@H]2N)[C@H](N)[C@@H](O)[C@@H]1O [NEA, neamine]
number of acetylations of NEA by Eis_Ava observed by TLC and NMR (Eis_Ava [9]): di-acetylation
first position acetylated by Eis_Ava (Eis_Ava [9]; TLC and NMR): 2′-position
second site modified by Eis_Ava (Eis_Ava [9]; TLC and NMR): 1-position
positions sequentially acetylated by Eis_Msm (Eis_Msm [4]): 2′-, 6′-, and 1-position
positions sequentially acetylated by Eis_Mtb (Eis_Mtb [5]): 2′-, 6′-, and 1-position

NC[C@@H]1O[C@H](O[C@H]2[C@@H](O)[C@H](O[C@@H]3[C@@H](O)[C@H](N)C[C@H](N)[C@H]3O[C@H]3O[C@H](CO)[C@@H](O)[C@H](O)[C@H]3N)O[C@@H]2CO)[C@H](N)[C@@H](O)[C@@H]1O [PAR, paromomycin]
number of acetylations by Eis_Msm (Eis_Msm [4]): tri-acetylation
number of acetylations by Eis_Mtb (Eis_Mtb [5]): di-acetylation
number of acetylations by Eis_Ava (Eis_Ava [6]): tri-acetylation
Km (Eis_Mtb [10]): 110 ± 21 µM
kcat (Eis_Mtb [10]): 0.136 ± 0.012 s⁻¹

CN[C@@H]1[C@H](O)[C@H](NC)[C@H]2O[C@@]3(O)C(=O)C[C@@H](C)O[C@H]3O[C@@H]2[C@H]1O [SPT, spectinomycin]
number of acetylations by Eis_Ava (Eis_Ava [6]): not be substrates

[H]/N=C(/N)N[C@H]1[C@H](O)[C@@H](O)[C@H](O[C@@H]2O[C@@H](C)[C@](O)(C=O)[C@H]2O[C@@H]2O[C@@H](CO)[C@H](O)[C@@H](O)[C@@H]2NC)[C@@H](N/C(N)=N\[H])[C@@H]1O [STR, streptomycin]
number of acetylations by Eis_Ava (Eis_Ava [6]): not be substrates

[H]/N=C(\N/C(=N/[H])NCCCCCCNC(=N)NC(=N)Nc1ccc(Cl)cc1)Nc1ccc(Cl)cc1 [compound 1, chlorhexidine]
IC50 (Eis_Msm [11]): 1850 ± 390 nM
IC50 for Eis_Ava fold higher than against Eis_Msm (Eis_Ava [12]): 11 fold
IC50 for Eis_Ava fold higher than for Eis_Mtb (Eis_Ava [12]): 107 fold
IC50 (Eis_Ava [13]): 20 ± 7 µM

C/C=C/C(=O)SCCNC(=O)CCNC(=O)[C@H](O)C(C)(C)COP(=O)(O)OP(=O)(O)OC[C@H]1O[C@@H](n2cnc3c(N)ncnc32)[C@H](O)[C@@H]1OP(=O)(O)O [crotonyl-CoA]
acceptance as cosubstrate by Eis_Mtb (Eis_Mtb [8]): moderately so

CC(C)(COP(=O)(O)OP(=O)(O)OC[C@H]1O[C@@H](n2cnc3c(N)ncnc32)[C@H](O)[C@@H]1OP(=O)(O)O)[C@@H](O)C(=O)NCCC(=O)NCCSC(=O)CC(=O)O [malonyl-CoA]
acceptance as cosubstrate by Eis_Mtb (Eis_Mtb [8]): moderately so

CCC(=O)SCCNC(=O)CCNC(=O)[C@H](O)C(C)(C)COP(=O)(O)OP(=O)(O)OC[C@H]1O[C@@H](n2cnc3c(N)ncnc32)[C@H](O)[C@@H]1OP(=O)(O)O [n-propionyl-CoA]
acceptance as cosubstrate by Eis_Ava (Eis_Ava [7]): accepted
acceptance as cosubstrate by Eis_Mtb (Eis_Mtb [8]): efficiently accepting

Eis_Ava (Trichormus variabilis ATCC 29413)
Km [14]: 101 ± 16 µM
kcat [14]: 0.106 ± 0.006 s⁻¹
kcat/Km [14]: 1050 ± 184 M⁻¹ s⁻¹
Km [15]: 42 ± 9 µM
kcat [15]: 0.352 ± 0.021 s⁻¹
kcat/Km [15]: 7410 ± 1940 M⁻¹ s⁻¹
Km [16]: 337 ± 98 µM
kcat [16]: 0.019 ± 0.002 s⁻¹
kcat/Km [16]: 57 ± 18 M⁻¹ s⁻¹
Km [17]: 237 ± 36 µM
kcat [17]: 0.183 ± 0.013 s⁻¹
kcat/Km [17]: 773 ± 132 M⁻¹ s⁻¹

Eis_Msm (Mycolicibacterium smegmatis MC2 155)
Km [18]: 110 ± 14 µM
kcat [18]: 0.148 ± 0.006 s⁻¹
kcat/Km [18]: 1340 ± 180 M⁻¹ s⁻¹
Km [19]: 1302 ± 312 µM
kcat [19]: 0.687 ± 0.083 s⁻¹
kcat/Km [19]: 528 ± 142 M⁻¹ s⁻¹
Km [20]: 150 ± 43 µM
kcat [20]: 0.019 ± 0.002 s⁻¹
kcat/Km [20]: 127 ± 39 M⁻¹ s⁻¹
Km [21]: 738 ± 158 µM
kcat [21]: 0.235 ± 0.033 s⁻¹
kcat/Km [21]: 318 ± 82 M⁻¹ s⁻¹

Eis_Mtb (Mycobacterium tuberculosis H37Rv)
Km [22]: 1315 ± 492 µM
kcat [22]: 0.699 ± 0.136 s⁻¹
kcat/Km [22]: 532 ± 224 M⁻¹ s⁻¹

kanamycin A
acetylation by Eis_Ava (UV-Vis) (Eis_Ava [1]): efficiently gets multi-acetylated
acetylation by Eis_Mtb (UV-Vis) (Eis_Mtb [2]): efficiently gets multi-acetylated
acetylation by Eis_Msm (UV-Vis) (Eis_Msm [3]): efficiently gets multi-acetylated

Source: paper PMC3496871 (Molecular bioSystems, 2012)
